According to patent publication US6646137B1, “Non-peptide GnRH agents” (priority 1998, dated 2003):
Read-outs that look alike come from different tables or passages of the source.

Molecular target: T1, human GnRH receptor (Homo sapiens, UniProt P30968)
T1 construct: The cDNA for the human GnRH receptor is cloned into the plasmid expression vector, pcDNA 3; expressed in transfected cells; host or cells: HEK 293 cells, stably transfected (pcDNA 3); membrane preparation
T1 sequence (P30968 1-328): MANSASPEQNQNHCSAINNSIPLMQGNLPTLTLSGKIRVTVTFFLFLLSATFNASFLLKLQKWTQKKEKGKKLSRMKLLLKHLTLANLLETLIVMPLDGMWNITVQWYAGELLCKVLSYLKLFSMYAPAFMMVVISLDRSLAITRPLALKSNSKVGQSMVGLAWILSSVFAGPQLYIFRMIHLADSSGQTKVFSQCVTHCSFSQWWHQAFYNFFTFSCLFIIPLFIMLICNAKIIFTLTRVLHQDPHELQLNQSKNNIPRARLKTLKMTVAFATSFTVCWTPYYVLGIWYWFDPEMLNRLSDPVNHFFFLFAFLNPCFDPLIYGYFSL
Experiment: GnRH receptor competitive radioligand binding assay (125I-GnRH-A, HEK 293 cell membranes)
Conditions: compound at 10 μM
Excerpt: The cDNA for the human GnRH receptor is cloned into the plasmid expression vector, pcDNA 3 (In Vitrogen), and stably transfected in HEK 293 cells (a cell line developed by Dr. Stuart Sealfon, Mount Sinai Medical School, New York, N.Y.).
The human GnRH receptor (hGnRH) is cloned into pcDNA 3 (In Vitrogen), which provides high-level expression and a neomycin resistance marker. Lipofectamine (GIBCO BRL) is used to transfect HEK 293 cells with plasmid DNA. This method involves mixing the plasmid and reagent in serum-free medium, allowing DNA-liposome complexes to form, and overlaying cells with this solution. The HEK 293 cells are plated (seeded) on a 10-cm tissue culture dish at a density of 3×10^6 cells/dish the day before transfection. For each plate, 8 μg DNA plus 0.8 mL serum-free medium is mixed with 48 μL lipofectamine plus 0.8 mL serum-free medium, followed by incubation for 30 minutes at room temperature to allow DNA-liposome complexes to form. Serum-free medium is added to give a final volume of 6 mL/plate. The cells are rinsed twice with serum-free medium and overlayed with the DNA-liposome mixture. Five hours after transfection, an equal volume (6 mL) of medium containing 20% FBS (fetal bovine serum) is added. The cells are fed with fresh complete medium 18-24 hours after transfection. The cells are split 72 hours following transfection, at densities of 1:10 and 1:20. Stable tranformants are selected for by growth of the cells in antibiotic containing medium (G418, Sigma Chemical Company (also known as Geneticin)). Colonies are isolated and tested for receptor expression by radioligand binding and by measuring phosphoinositol turnover.
HEK 293 cells stably transfected with human GnRH receptors as described above are grown in MEM (minimal essential medium, available from Sigma Chemical Company) supplemented with 0.1% G418 (Sigma Chemical Company). Cells are homogenized in buffer A containing 50 mM Tris (pH 74.), 0.32M sucrose, 2 mM ethyleneglycol-bis(β-aminoethyl)-N,N,N′,N′-tetraacetic acid (EGTA), 1 mM phenylmethylsulfonyl fluoride (PMSF), 5 μg/mL aprotinen, 5 μg/mL Pepstatin A, and 1 μg/mL leupeptin. The homogenized cells are centrifuged at 4° C. at 20,000×g for 25 minutes, resuspended in buffer A, and recentrifuged at 4° C. at 20,000×g for an additional 25 minutes. Total membrane protein is determined with a BCA kit (Pierce, Rockford, Ill.). Membranes are stored at −70° C. at a final membrane protein concentration of 5 mg/mL.
The radioiodinated agonist analog of GnRH, [des-Gly^10, D-Ala^8]GnRH ethylamide (GnRH-A), is used as the labeled ligand. One μg of GnRH-A diluted in 0.1M acetic acid is added to an lodogen®-coated borosilicate glass tube pierce) containing 35 μL of 0.05M phosphate buffer (pH 7.4-7.6) and 1 mCi of Na[^125I]. The reaction mixture is vortexed and incubated for 1 minute at room temperature. After one minute, the mixture is vortexed again and allowed to incubate for an additional minute. Two mL of 0.5M acetic acid/1% BSA is added to the reaction tube, and the mixture is added to a C18 Sep-Pak cartridge. The cartridge is washed with subsequent washes of 5 mL H2O and 5 mL 0.5M acetic acid, and then eluted with 5×1 mL of 60% CH3CN/40% 0.5M acetic acid. The eluant is diluted with 3×volume of HPLC buffer A (0.1% TFA in H2O) and loaded onto a C18 column. The iodinated product is eluted over 20-25 minutes with a gradient of 25-100% CH3CN containing 0.1% TFA. The radioactive fractions (750 μL/fraction) are collected into clean polypropylene tubes containing 10 μL of 10% BSA. Fractions are assessed for biological activity by radioligand binding. Active fractions are utilized to screen the compounds for competitive binding assays.
HEK 293 cell membranes stably expressing hGnRHR (human GnRH receptors) are diluted to 0.5-1.0 mg/mL with assay buffer containing 50 mM HEPES (pH 7.4), 1 mM ethylenediarninetetraacetic acid (EDTA), 2.5 mM MgCl2, and 0.1% BSA. […]

[1] = average of 1st and 2nd test, read-out: Average % Remaining (percent of specific binding remaining)
[2] = crude compounds, 125I-GnRH-A, lower value = higher inhibition, read-out: % Remaining 1st Test (percent of specific binding remaining)
[3] = crude compounds, 125I-GnRH-A, lower value = higher inhibition, read-out: % Remaining 2nd Test (percent of specific binding remaining)

SMILES | remaining activity at 10 µM [1] | remaining activity at 10 µM [2] | remaining activity at 10 µM [3]
CC(C)(C)c1ccc(CN(CCCCNC(=N)N)C(=O)c2cccc3ccccc23)cc1 [Compound 23] | 49% | 48% | 50%
CC(C)(C)c1ccc(CN(CCCCNC(=N)N)C(=O)c2ccc3ccccc3c2)cc1 [Compound 24] | 56% | 58% | 58%
N=C(N)NCCCCN(CC12CC=CCC1C1CC=CCC1O2)C(=O)c1cccc2ccccc12 (stereo not drawn) [Compound 25] | 46% | 41% | 51%
N=C(N)NCCCCN(CC12CC=CCC1C1CC=CCC1O2)C(=O)c1ccc2ccccc2c1 (stereo not drawn) [Compound 26] | 36% | 35% | 37%
Cc1cc2c(cc1CN(CCCCNC(=N)N)C(=O)C1CCCCC1)C(C)(C)CCC2(C)C [Compound 27] | 59% | 56% | 62%
Cc1cc2c(cc1CN(CCCCNC(=N)N)C(=O)c1cccc3ccccc13)C(C)(C)CCC2(C)C [Compound 28] | 52% | 46% | 57%
Cc1cc2c(cc1CN(CCCCNC(=N)N)C(=O)c1ccc3ccccc3c1)C(C)(C)CCC2(C)C [Compound 29] | 57% | 53% | 61%
Cc1cc2c(cc1CN(CCCCNC(=N)N)C(=O)c1ccco1)C(C)(C)CCC2(C)C [Compound 30] | 33% | 29% | 37%
Cc1cc2c(cc1CN(CCCCNC(=N)N)C(=O)c1ccccc1)C(C)(C)CCC2(C)C [Compound 31] | 45% | 44% | 45%
Cc1cc2c(cc1CN(CCCCNC(=N)N)C(=O)c1ccc(Cl)nc1)C(C)(C)CCC2(C)C [Compound 32] | 57% | 52% | 61%
N=C(N)NCCCCN(Cc1ccc(OCc2ccccc2)c(OCc2ccccc2)c1)C(=O)C1CCCCC1 [Compound 33] | 59% | 52% | 65%
N=C(N)NCCCCN(Cc1ccc(OCc2ccccc2)c(OCc2ccccc2)c1)C(=O)c1cccc2ccccc12 [Compound 34] | 51% | 45% | 57%
CC(=O)N(CCCCNC(=N)N)Cc1ccc(OCc2ccccc2)c(OCc2ccccc2)c1 [Compound 35] | 52% | 50% | 54%
CN(C)CCCOc1ccc(CN(Cc2cccc(CNC(=N)N)c2)C(=O)c2ccc3ccccc3c2)cc1 [Compound 36] | 58% | 56% | 59%
N=C(N)NCc1cccc(CN(CC23CC=CCC2C2CC=CCC2O3)C(=O)C2CCCCC2)c1 (stereo not drawn) [Compound 37] | 60% | 59% | 61%
N=C(N)NCc1cccc(CN(CC23CC=CCC2C2CC=CCC2O3)C(=O)c2cccc3ccccc23)c1 (stereo not drawn) [Compound 38] | 57% | 59% | 55%
N=C(N)NCc1cccc(CN(CC23CC=CCC2C2CC=CCC2O3)C(=O)c2ccc3ccccc3c2)c1 (stereo not drawn) [Compound 39] | 46% | 46% | 45%
Cc1cc2c(cc1CN(Cc1cccc(CNC(=N)N)c1)C(=O)c1ccco1)C(C)(C)CCC2(C)C [Compound 40] | 12% | 12% | 11%

Now from value to molecule:

remaining activity at 10 µM [1] | remaining activity at 10 µM [2] | remaining activity at 10 µM [3] | SMILES
45% | 46% | 43% | CC(C)(C)c1ccc(CN(CC2CCCC(CNC(=N)N)C2)C(=O)c2cccc3ccccc23)cc1 (stereo not drawn) [Compound 41]
58% | 54% | 62% | CC(C)(C)c1ccc(CN(CC2CCCC(CNC(=N)N)C2)C(=O)c2ccc3ccccc3c2)cc1 (stereo not drawn) [Compound 42]
50% | 47% | 53% | CC(C)(C)c1ccc(CN(CC2CCCC(CNC(=N)N)C2)C(=O)c2cccs2)cc1 (stereo not drawn) [Compound 43]
60% | 58% | 62% | CC(C)(C)c1ccc(CN(CC2CCCC(CNC(=N)N)C2)C(=O)c2ccccc2)cc1 (stereo not drawn) [Compound 44]
49% | 45% | 52% | CN(C)CCCOc1ccc(CN(CC2CCCC(CNC(=N)N)C2)C(=O)c2ccc3ccccc3c2)cc1 (stereo not drawn) [Compound 46]
42% | 39% | 44% | N=C(N)NCC1CCCC(CN(CC23CC=CCC2C2CC=CCC2O3)C(=O)c2cccc3ccccc23)C1 (stereo not drawn) [Compound 47]
44% | 48% | 40% | N=C(N)NCC1CCCC(CN(CC23CC=CCC2C2CC=CCC2O3)C(=O)c2ccc3ccccc3c2)C1 (stereo not drawn) [Compound 48]
58% | 53% | 62% | N=C(N)NCC1CCCC(CN(CC23CC=CCC2C2CC=CCC2O3)C(=O)c2ccc(Cl)nc2)C1 (stereo not drawn) [Compound 49]
55% | 47% | 62% | N=C(N)NCC1CCCC(CN(Cc2cnc3ccccc3c2)C(=O)c2cccc3ccccc23)C1 (stereo not drawn) [Compound 50]
56% | 48% | 63% | N=C(N)NCC1CCCC(CN(Cc2cnc3ccccc3c2)C(=O)c2ccc3ccccc3c2)C1 (stereo not drawn) [Compound 51]
58% | 57% | 59% | Cc1cc2c(cc1CN(CC1CCCC(CNC(=N)N)C1)C(=O)C1CCCCC1)C(C)(C)CCC2(C)C (stereo not drawn) [Compound 52]
51% | 46% | 55% | Cc1cc2c(cc1CN(CC1CCCC(CNC(=N)N)C1)C(=O)c1cccc3ccccc13)C(C)(C)CCC2(C)C (stereo not drawn) [Compound 53]
54% | 49% | 59% | Cc1cc2c(cc1CN(CC1CCCC(CNC(=N)N)C1)C(=O)c1ccc3ccccc3c1)C(C)(C)CCC2(C)C (stereo not drawn) [Compound 54]
